Test results from patent US12411143B2, “CD146 and uses thereof as a biomarker and as a therapeutic target in the diagnosis and treatment of fibrosis” (ASSISTANCE PUBLIQUE HÔPITAUX DE MARSEILLE, priority 2018, dated 2025).

Tests used:
[1] = system: ECFC; experiment: Soluble CD146 secretion in ECFC (ELISA); format: cell-based, human; conditions: for secretion of soluble CD146 in response to stimuli: 24 h, 20 ng/ml TNF, 20 ng/ml VEGF, 5 ng/ml TGFb, 50 ng/ml netrin, 50 ng/ml Wnt5a; for sCD146 secretion with proteinase inhibitors: IF 50 μM, TIMPs 1 μg/ml
Method: A: Secretion of soluble CD146 (CD146s) was determined in ECFC in response to 24 h of treatment with 20 ng/ml TNF, 20 ng/ml VEGF, 5 ng/ml TGFb, 50 ng/ml netrin, 50 ng/ml Wnt5a and 50 ng/ml Wnt3a.
B: The effect of the pan-inhibitor GM6001 was tested on CD146s secretion in ECFC cells by ELISA. Experiments were performed in control conditions and after treatment with 20 ng/ml TNF for 24 h. […] A dose-dependence of GM6001 effect was performed between 1 and 50 μM. Results are the mean values+/−SEM of 5 experiments.
C: The effect of furin convertase inhibitor (IF) was tested at 50 μMon CD146s secretion in control condition and after treatment with TNF 20 ng/ml for 24 h. Results are the mean values+/−SEM of 3 experiments.
D: Effect of TIMP-1, -2 and -3 (1 μg/ml) was tested on CD146s secretion in control condition and after treatment with 20 ng/ml TNF. Results are the mean values+/−SEM of 3 experiments. *: P<0.05, **: P<0.01, ***: P<0.001, experimental vs Control
A: ECFC were transfected with siRNA targeting the short (shCD146) or the long (IgCD146) isoforms of CD146 and with a control siRNA (C). Soluble CD146 (sCD146) secretion was determined. Results are the mean values+/−SEM of 4 different experiments.
B: ECFC were transfected with siRNA targeting MT1-MMP, MMP2, ADAM10 or Tace and with a control siRNA (C). Soluble CD146 (sCD146) secretion was determined. In one condition, cells were treated with GM6001 10 μM. Results are the mean values+/−SEM of 5 different experiments.
A: ECFC were transfected with siRNA targeting the short (shCD146) or the long (IgCD146) isoforms of CD146 and with a control siRNA (C) and soluble CD146 (sCD146) secretion was determined in basal condition and in cells treated for 24 h with TNF 20 ng/ml. Results are the mean values +/−SEM of 5 different experiments.
B: ECFC treated for 24 h with 20 ng/ml TNF were transfected with siRNA targeting Tace, ADAM10, MT1-MMP and with a control siRNA (C) and soluble CD146 (sCD146) secretion was determined. Results are the mean values +/−SEM of 3 different experiments.
Endothelial Colony Forming Cells (ECFC) were cultured in endothelial EGM-2 MV medium as previously described (Delorme B et al., 2005).
SiRNA designed to silence the different isoforms of sCD146 were generated. A control siRNA was also used in each experiment. siRNAs were introduced in endothelial cells using the Silence magmagnetofection kit as described by the manufacturer (OZ Biosciences).
Shed sCD146 was assayed using the commercial ELISA assay (CY-QUANT sCD146, Biocytex, Marseille). Plates were coated with specific mouse monoclonal anti-human CD146 F(ab′)2 fragments. 10 μL of sera was added to each well and incubated for 30 minutes at room temperature. After incubation, the plates were washed five times, followed by incubation with a specific HRP-coupled monoclonal antibody (7A4-HRP, 1 mg/ml, Biocytex, Marseille, France) at a 1:1 000 dilution in a specific diluent for 30 minutes at room temperature and then washed five times. 200 μL of tetramethylbenzidine (TMB) substrate was incubated for approximately 20 minutes at room temperature. The colorimetric reaction was then stopped by the addition of 100 μL of an acid solution. The intensity of the signal was directly related to the concentration of sCD146 initially contained in the sample. For detecting the two spliced isoforms of sCD146 (I5-13-sCD146 and I10-sCD146), the same immunoassay was used (Biocytex). The protocol was modified only for the second antibody (detection antibody) that was replaced by the anti-I5-13-sCD146 or anti-I10-sCD146 antibodies coupled to HRP.

[2] = system: ECFC; experiment: mRNA expression of sCD146 isoforms in ECFC (qPCR); format: cell-based, human; conditions: ECFC; 24 h treatment (WNT5a 15 min, WNT3a 1 h)
Method: C: The mRNA expression of I10-sCD146 and I5-13-sCD146 isoforms was analyzed by qPCR in ECFC after treatment of the cells for 24 h with the recombinant shed soluble CD146 50 ng/ml, VEGF 20 ng/ml, TNF 20 ng/ml, TGF beta 5 ng/ml, and netrin 50 ng/ml. Cells were also treated for 15 min with WNT5a 200 ng/ml and 1 h with WNT3a 50 ng/ml. Results are the mean values +/−SEM of 3 experiments. *: P<0.05, experimental vs Control.
Total cellular RNA was isolated from cells, reverse transcribed into cDNA and the resulting cDNA was subjected to qPCR.

[3] = system: mouse ischemic hind limb model; experiment: Mouse hind limb ischemia model; format: in vivo
Method: A: Ischemic mice were treated with PBS or 2 μg of rh-sCD146/rh-I10-sCD146/rh-I5-13-sCD146 or VEGF. Blood perfusion rate was monitored by laser-Doppler. Results are mean values of 6 different animals in each group and expressed as % of the control leg. *, **, ***: P<0.05, P<0.01, P<0.001, I10-sCD146 vs. PBS; $$, $$$: P<0.01, P<0.001, I5-13-sCD146 vs. PBS; ##, ###: P<0.01, P<0.001, shed sCD146 vs. PBS; £: P<0.05, VEGF vs. PBS.
B: Blood vessels examination in hind limb muscle sections from control (PBS) and shed rh-sCD146/rh-I10-sCD146/rh-I5-13-sCD146 treated animals 28 days after surgery. Vessels are labelled with isolectin B4.**, ***: P<0.01, P<0.001, experimental vs control. $: P<0.05, I10-sCD146 vs I5-13-sCD146.
C: Angiographic pictures of control (PBS) and shed sCD146/I10-sCD146/I5-13-sCD146 treated animals at D28. Pictures are representative of the 6 animals in each group. Average of the density of the vessels was expressed as right versus left leg in the different parts of the legs (calf, thigh) and in the whole leg. *, **: P<0.01, P<0.001 experimental vs PBS in calf; $: P<0.05, experimental vs PBS in thigh; #, ##: P<0.05, P<0.01, experimental vs PBS in whole leg.
In sections of muscles from ischemic mice, vascularisation was visualized with isolectin B4 (Lifetechnologies) ( 1/100). Tissue sections were examined by fluorescence microscopy (Leica sp5, Leica, Nanterre, France).
Female mice were subjected to unilateral hind limb ischemia by complete resection of the entire left femoral artery. After surgery, animals were split in four treatment groups: one control group injected in ischemic adductor muscles twice a week with PBS for 28 days; three experimental groups treated as the control groups with the three different recombinant human soluble CD146 (rh-sCD146, rh-I5-13-sCD146, rh-I10-sCD146) 2 μg.
The ratio of the ischemic versus normal hind limb blood flow was measured using a laser doppler blood flow analyzer. At different time points post-surgery (days 1, 3, 7, 14, 21 and 28), animals were subjected to 3 consecutive laser scannings over the regions of interest (leg and feet). Blood flow was expressed as the ischemic versus normal hind limb ratio.
The animals were deeply anesthetised with mix of Ketamine Xylasine (100 mg/kg and 10 mg/kg respectively) and perfused intracardially with 2 ml of lipiodole. CT 3D images were obtained with a microPET/microCT rodent model scanner (nanoPET/CTO, Mediso) with features below: 70 kVp energy, exposure time of 300 ms and 720 projections and were quantified.

[4] = system: ECFC; experiment: Permeability of ECFC monolayer to dextran-FITC; format: cell-based, human; conditions: siRNA or plasmid transfection
Method: D: ECFC were transfected with siRNA targeting ADAM10 or Tace and with a control siRNA (C). The permeability of the ECFC monolayer grown on semi-permeable filters was determined using dextran-FITC. Results are the mean values+/−SEM of 3 experiments.
E: ECFC were transfected with plasmid vectors encoding ADAM10 (p-ADAM10) or Tace (p-Tace) and with a control plasmid vector (C). The permeability of the ECFC monolayer grown on semi-permeable filters was determined using dextran-FITC. Results are the mean values+/−SEM of 3 experiments. *: P<0.05, **: P<0.01, ***: P<0.001, experimental vs Control.
ECFC were seeded at 60,000 cells per well on membrane inserts (porosity 1 μm) of a 24-multiwell double chamber system (Multiwell Insert System, BD Biosciences, Le Pont de Claix, France) after siRNA transfection or not. Confluent endothelial monolayers were then incubated for 24 h in EGM-2 medium in the presence or absence of the different forms of sCD146. The FITC-dextran (sigma) was added at the apical surface of the cells and was allowed to migrate for 1.5 h at 37° C. Basolateral FITC-dextran was then measured using a Cytofluor Series 4000 Fluorescence (PerSeptiveBiosystems, Framingham, MA).

[5] = control condition and TNF 20 ng/ml 24 h

VEGF [reference compound]
secretion of soluble CD146 in response to stimuli [1]: increased
I5-13-sCD146 mRNA level [2]: not modified
I10-sCD146 mRNA level [2]: down-regulated
vascularisation of muscle (isolectin B4 labelling) ([3]; 28 days after surgery, compared to PBS): vascularisation was increased
vessel density in calf, thigh and whole leg (angiography quantification) ([3]; D28, compared to PBS): significantly increased

IgCD146 siRNA: siRNA targeting the long isoform of CD146; sens 5′CCCGUCUCGUAAGACCGAACUUGUA (antisense UACAAGUUCGGUCUUACGAGACGGG; chemistry not given here)
reduction of sCD146 secretion by siRNA ([1]; 24 h TNF 20 ng/ml): about 60%
effect of siRNA on sCD146 secretion ([1]; control condition): reduced sCD146 secretion
reduction of sCD146 secretion by siRNA ([1]; control condition): around 75%
permeability of ECFC monolayer to dextran [4]: significantly increased endothelial permeability

TGFb: stimulus of endothelial cells, 5 ng/ml [reference compound]
secretion of soluble CD146 in response to stimuli [1]: increased
I5-13-sCD146 mRNA level [2]: not modified

TIMP-1: TIMP used to inhibit sCD146 secretion
sCD146 secretion with proteinase inhibitors [1, 5]: able to reduce sCD146 secretion in both conditions

shCD146 siRNA: siRNA targeting the short isoform of CD146; sens 5′CAGGAGAUGGAGAGAAAUACAUCGA (antisense UCGAUGUAUUUCUCUCCAUCUCCUG; chemistry not given here)
reduction of sCD146 secretion by siRNA ([1]; 24 h TNF 20 ng/ml): ~25%
effect of siRNA on sCD146 secretion ([1]; control condition): no effect

CNC(=O)[C@H](Cc1c[nH]c2ccccc12)NC(=O)[C@@H](CC(=O)NO)CC(C)C [GM6001]
GM6001-dependent part of total sCD146 secretion ([1]; control condition and TNF 20 ng/ml 24 h, GM6001 1-50 μM): around 75%

B1: Wnt3a: stimulus of endothelial cells (protein, UniProt P56704 19-352, looked up)
Protein Wnt-3a: SYPIWWSLAVGPQYSSLGSQPILCASIPGLVPKQLRFCRNYVEIMPSVAEGIKIGIQECQHQFRGRRWNCTTVHDSLAIFGPVLDKATRESAFVHAIASAGVAFAVTRSCAEGTAAICGCSSRHQGSPGKGWKWGGCSEDIEFGGMVSREFADARENRPDARSAMNRHNNEAGRQAIASHMHLKCKCHGLSGSCEVKTCWWSQPDFRAIGDFLKDKYDSASEMVVEKHRESRGWVETLRPRYTYFKVPTERDLVYYEASPNFCEPNPETGSFGTRDRTCNVSSHGIDGCDLLCCGRGHNARAERRREKCRCVFHWCCYVSCQECTRVYDVHTCK
I5-13-sCD146 mRNA level [2]: not modified
I10-sCD146 mRNA level [2]: down-regulated

B2: Wnt5a: stimulus of endothelial cells (protein, UniProt P41221 62-380, looked up)
Protein Wnt-5a: IIGAQPLCSQLAGLSQGQKKLCHLYQDHMQYIGEGAKTGIKECQYQFRHRRWNCSTVDNTSVFGRVMQIGSRETAFTYAVSAAGVVNAMSRACREGELSTCGCSRAARPKDLPRDWLWGGCGDNIDYGYRFAKEFVDARERERIHAKGSYESARILMNLHNNEAGRRTVYNLADVACKCHGVSGSCSLKTCWLQLADFRKVGDALKEKYDSAAAMRLNSRGKLVQVNSRFNSPTTQDLVYIDPSPDYCVRNESTGSLGTQGRLCNKTSEGMDGCELMCCGRGYDQFKTVQTERCHCKFHWCCYVKCKKCTEIVDQFVCK
secretion of soluble CD146 in response to stimuli [1]: increased
I5-13-sCD146 mRNA level [2]: up-regulated

B3: TIMP-3: TIMP used to inhibit sCD146 secretion (protein, UniProt P35625 24-211, looked up)
Metalloproteinase inhibitor 3: CTCSPSHPQDAFCNSDIVIRAKVVGKKLVKEGPFGTLVYTIKQMKMYRGFTKMPHVQYIHTEASESLCGLKLEVNKYQYLLTGRVYDGKMYTGLCNFVERWDQLTLSQRKGLNYRYHLGCNCKIKSCYYLPCFVTSKNECLWTDMLSNFGYPGYQSKHYACIRQKGGYCSWYRGWAPPDKSIINATDP
sCD146 secretion with proteinase inhibitors [1, 5]: able to reduce sCD146 secretion only when the cells were treated with TNF
